Key:
[1] = test system: HCT-116 colon cancer cell line; test: MTT cytotoxicity, colon cancer cell line; type: cell-based; conditions: 95% confidence interval in brackets
Description: (§1) The 4-oxoquinoline-3-carboxamide derivatives (0.3125–20 μM) were tested for cytotoxic activity against three cancer cell lines: HCT-116 (colon), ACP03 (gastric), and MDAMB-231 (breast) (Table 1). Active derivatives were also tested against a normal fibroblast cell line (MRC-5). All cell lines were maintained in DMEM medium supplemented with 10% fetal bovine serum, 2 mM glutamine, 100 U/mL penicillin, and 100 µg/mL streptomycin and were incubated at 37 °C with 5% CO2. Each derivative was dissolved with DMSO to a concentration of 10 mM. The final concentration of DMSO in the culture medium was kept at a constant value below 0.1% (v/v). The derivatives (0.3125–20 µM) were incubated with the cells for 72 h. The negative control contained the same amount of DMSO ([…]). Cell viability was determined by the reduction of the yellow dye 3-(4,5-dimethyl-2-thiazol)-2,5-diphenyl-2H-tetrazolium bromide (MTT) to a blue formazan product as described by Mosmann.
(§2) In the MTT experiments, the results were analyzed according to their means and standard errors in the program GraphPad Prism. Each sample was analyzed in triplicate.

[2] = test system: MDAMB231 breast cancer cell line; test: MTT cytotoxicity, breast cancer cell line; type: cell-based; conditions: 95% confidence interval in brackets
Description: as §1, §2

[3] = test system: ACP-03 (ACP03) gastric cancer cell line; test: MTT cytotoxicity, gastric cancer cell line; type: cell-based; conditions: for IC50: gastric cancer cell line, MTT, 72 h, 95% confidence interval in brackets
Description: as §1, §2

[4] = test system: MRC5 normal human fetal lung fibroblast; test: MTT cytotoxicity, normal fibroblast cell line; type: cell-based; conditions: for cytotoxicity in normal fibroblasts: at 20 µM, MRC-5; for IC50: normal human fetal lung fibroblast, MTT, 72 h, 95% confidence interval in brackets
Description: as §1, §2

[5] = test system: mouse erythrocytes; test: Hemolytic assay (cell membrane disruption); type: cell-based; conditions: result in words
Description: (§3) The assay was performed in 96-well plates using a 2% mouse erythrocyte suspension in 0.85% NaCl containing 10 mM CaCl2. Derivatives 10–18, diluted as described above, were tested at 250 µg/mL. After incubation at room temperature for 1 h and centrifugation, the supernatant was removed, and the liberated hemoglobin was measured spectrophotometrically at 540 nm. DMSO was used as a negative control, and Triton X-100 (1%) was used as a positive control.

[6] = target: T1, Human topoisomerase IIα (TopoIIα) (Homo sapiens, UniProt P11388); test: DNA relaxation assay (Topoisomerase II Drug Screening Kit); type: biochemical; conditions: 100 µM compound, 10 U enzyme, 37 °C, 30 min, agarose gel
T1 construct: purchased TopoGEN, Inc. (Columbus, OH, USA)
Description: Human topoisomerase IIα (TopoIIα) was obtained from TopoGEN, Inc. (Columbus, OH, USA). Proteinase K from Tritirachium album was obtained from Sigma-Aldrich, Inc. (St. Louis, MO, USA) and was dissolved in DNase free water. A TAE gel electrophoresis buffer was used in this assay.
The inhibitory effects of the derivatives on human TopoIIα were measured using a Eukaryotic Topoisomerase II Drug Screening Kit (TopoGEN, Inc.). All derivatives were dissolved in DMSO immediately prior to testing.
The substances were tested at a fixed concentration of 0.1 mM. […] Supercoiled plasmid DNA (pRYG, 200 ng) was incubated with human TopoIIα (10 U) at 37 °C for 30 min in relaxation buffers in the absence or presence of derivatives (final volume is 20 μL). The order of reagent addition was buffer, test derivative, Topo IIα and finally DNA.
The assay samples were analyzed by electrophoresis on a 1% agarose gel without EtdBr (25 V, 18 h, room temperature) in TAE buffer, followed by staining in 0.5 μg/mL of EtdBr to allow for observation of the DNA bands under UV light.

[7] = Hemolytic assay (cell membrane disruption); type: cell-based, mouse; conditions: 2% mouse erythrocyte suspension, 1 h, room temperature; read-out: Hemolysis (EC50)
Description: as §3

T1 sequence (P11388 whole entry): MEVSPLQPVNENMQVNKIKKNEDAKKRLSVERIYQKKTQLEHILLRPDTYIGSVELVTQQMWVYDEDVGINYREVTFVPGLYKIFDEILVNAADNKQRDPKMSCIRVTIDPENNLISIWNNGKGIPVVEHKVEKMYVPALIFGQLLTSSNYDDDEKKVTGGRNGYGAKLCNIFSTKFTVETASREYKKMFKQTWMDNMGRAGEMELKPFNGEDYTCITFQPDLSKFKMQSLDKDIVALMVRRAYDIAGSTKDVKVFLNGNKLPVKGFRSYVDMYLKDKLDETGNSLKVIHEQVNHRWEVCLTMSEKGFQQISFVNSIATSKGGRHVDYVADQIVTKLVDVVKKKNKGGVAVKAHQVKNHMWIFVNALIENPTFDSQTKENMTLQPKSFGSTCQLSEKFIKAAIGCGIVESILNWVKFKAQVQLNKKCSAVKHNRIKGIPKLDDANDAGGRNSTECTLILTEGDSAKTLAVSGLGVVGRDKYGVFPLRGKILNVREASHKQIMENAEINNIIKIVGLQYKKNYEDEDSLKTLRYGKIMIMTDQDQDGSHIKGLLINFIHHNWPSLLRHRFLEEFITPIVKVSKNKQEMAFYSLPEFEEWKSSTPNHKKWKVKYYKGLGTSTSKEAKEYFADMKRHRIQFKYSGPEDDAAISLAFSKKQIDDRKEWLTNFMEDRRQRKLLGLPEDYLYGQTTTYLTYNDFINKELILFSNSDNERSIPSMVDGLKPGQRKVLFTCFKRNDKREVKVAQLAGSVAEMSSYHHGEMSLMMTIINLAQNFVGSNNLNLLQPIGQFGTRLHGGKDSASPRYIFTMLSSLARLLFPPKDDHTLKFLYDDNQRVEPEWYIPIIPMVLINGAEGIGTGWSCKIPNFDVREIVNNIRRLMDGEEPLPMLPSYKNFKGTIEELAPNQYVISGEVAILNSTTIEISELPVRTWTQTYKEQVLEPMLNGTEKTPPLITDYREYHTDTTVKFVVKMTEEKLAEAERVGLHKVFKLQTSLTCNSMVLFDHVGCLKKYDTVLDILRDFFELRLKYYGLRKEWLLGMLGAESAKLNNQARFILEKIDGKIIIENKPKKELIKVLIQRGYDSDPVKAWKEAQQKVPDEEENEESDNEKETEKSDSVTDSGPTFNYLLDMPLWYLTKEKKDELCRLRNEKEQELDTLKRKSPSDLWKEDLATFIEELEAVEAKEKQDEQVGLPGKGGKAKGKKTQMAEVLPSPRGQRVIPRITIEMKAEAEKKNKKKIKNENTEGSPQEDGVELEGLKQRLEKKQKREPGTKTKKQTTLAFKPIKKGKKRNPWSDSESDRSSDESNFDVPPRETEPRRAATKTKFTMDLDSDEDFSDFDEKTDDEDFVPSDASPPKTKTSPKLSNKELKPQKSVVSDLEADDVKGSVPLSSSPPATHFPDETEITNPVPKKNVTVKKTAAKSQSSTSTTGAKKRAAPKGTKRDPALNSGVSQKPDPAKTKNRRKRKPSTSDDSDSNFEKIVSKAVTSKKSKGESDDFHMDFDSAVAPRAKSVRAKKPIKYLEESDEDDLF

COc1ccc(NC(=O)c2c[nH]c3ccccc3c2=O)cc1 [Derivative 14a, 4-oxo-N'-(4-Methoxyphenyl)-1,4-dihydroquinoline-3-carboxamide]
IC50 ([1]; 72 h): > 10 µM | IC50 ([2]; 72 h): > 10 µM

O=C(Nc1cc(Cl)ccc1Cl)c1c[nH]c2ccc(Cl)cc2c1=O [Derivative 17b, 6-Chloro-4-oxo-N'-(2,5-dichlorophenyl)-1,4-dihydroquinoline-3-carboxamide]
IC50 [3]: 5.18 µM | IC50 ([1]; 72 h): > 10 µM | IC50 ([2]; 72 h): > 10 µM | cytotoxicity in normal fibroblasts [4]: did not display cytotoxicity | IC50 [4]: > 20 µM | hemolytical activity against blood cells [5]: no hemolytical activity | inhibition of supercoiled DNA (pRYG) relaxation by topoisomerase II [6]: only the SC band is observed, which indicates topoisomerase inhibition

O=C(Nc1cc(Cl)ccc1Cl)c1c[nH]c2cc(Cl)ccc2c1=O [Derivative 17c, 7-Chloro-4-oxo-N'-(2,5-dichlorophenyl)-1,4-dihydroquinoline-3-carboxamide]
IC50 ([1]; 72 h): > 10 µM | IC50 ([2]; 72 h): > 10 µM

COc1ccc(OC)c(NC(=O)c2c[nH]c3ccc(Cl)cc3c2=O)c1 [Derivative 18b, 6-Chloro-4-oxo-N'-(2,5-dimethoxyphenyl)-1,4-dihydroquinoline-3-carboxamide]
IC50 ([1]; 72 h): > 10 µM | IC50 ([2]; 72 h): > 10 µM

O=C(NCc1ccc(Cl)cc1)c1c[nH]c2cc(Cl)ccc2c1=O [Derivative 10c, 7-Chloro-4-oxo-N'-(4-chlorobenzyl)-1,4-dihydroquinoline-3-carboxamide]
IC50 ([1]; 72 h): > 10 µM | IC50 ([2]; 72 h): > 10 µM

COc1cccc2c1C(=O)c1c(O)c3c(c(O)c1C2=O)C[C@@](O)(C(=O)CO)C[C@@H]3O[C@H]1C[C@H](N)[C@H](O)[C@H](C)O1 [DOXORUBICIN, doxorubicin, reference compound]
selectivity against cancer cells versus normal cells ([3]; ACP-03 versus MRC-5): no selectivity | IC50 [3]: 0.274 µM | IC50 ([1]; Homo sapiens, HCT-116, 72 h): 0.1 µM | IC50 ([2]; Homo sapiens, MDA-MB-231, 72 h): 0.43 µM | IC50 ([4]; MRC5): 0.2 µM | EC50 at 1 h [7]: > 200 µg/mL

O=C(Nc1ccccc1)c1c[nH]c2cc(Cl)ccc2c1=O [Derivative 15c, 7-Chloro-4-oxo-N'-phenyl-1,4-dihydroquinoline-3-carboxamide]
IC50 ([1]; 72 h): > 10 µM | IC50 ([2]; 72 h): > 10 µM

COc1ccc(OC)c(NC(=O)c2c[nH]c3cc(Cl)ccc3c2=O)c1 [Derivative 18c, 7-Chloro-4-oxo-N'-(2,5-dimethoxyphenyl)-1,4-dihydroquinoline-3-carboxamide]
IC50 ([1]; 72 h): > 10 µM | IC50 ([2]; 72 h): > 10 µM

O=C(NC1CCCCC1)c1c[nH]c2ccc(Cl)cc2c1=O [Derivative 11b, 6-Chloro-4-oxo-N'-cyclohexyl-1,4-dihydroquinoline-3-carboxamide]
IC50 ([1]; 72 h): > 10 µM | IC50 ([2]; 72 h): > 10 µM

Cc1ccc(NC(=O)c2c[nH]c3ccc(Cl)cc3c2=O)cc1 [Derivative 16b, 6-Chloro-4-oxo-N'-(p-tolyl)-1,4-dihydroquinoline-3-carboxamide]
IC50 [3]: 1.92 µM | IC50 ([1]; 72 h): > 10 µM | IC50 ([2]; 72 h): > 10 µM | cytotoxicity in normal fibroblasts [4]: did not display cytotoxicity | IC50 [4]: > 20 µM | hemolytical activity against blood cells [5]: no hemolytical activity | inhibition of supercoiled DNA (pRYG) relaxation by topoisomerase II [6]: only the SC band is observed, which indicates topoisomerase inhibition

Cc1ccc(NC(=O)c2c[nH]c3ccccc3c2=O)cc1 [Derivative 16a, 4-Oxo-N'-(p-tolyl)-1,4-dihydroquinoline-3-carboxamide]
IC50 ([1]; 72 h): > 10 µM | IC50 ([2]; 72 h): > 10 µM

O=C(Nc1ccc(F)cc1)c1c[nH]c2cc(Cl)ccc2c1=O [Derivative 13b, 7-Chloro-4-oxo-N'-(4-fluorphenyl)-1,4-dihydroquinoline-3-carboxamide]
IC50 ([1]; 72 h): > 10 µM | IC50 ([2]; 72 h): > 10 µM

O=C(Nc1ccc(F)cc1)c1c[nH]c2ccccc2c1=O [Derivative 13a, 4-oxo-N'-(4-Fluorophenyl)-1,4-dihydroquinoline-3-carboxamide]
IC50 ([1]; 72 h): > 10 µM | IC50 ([2]; 72 h): > 10 µM

O=C(Nc1ccc(Cl)cc1)c1c[nH]c2ccc(Cl)cc2c1=O [Derivative 12b, 6-Chloro-4-oxo-N'-(4-chlorophenyl)-1,4-dihydroquinoline-3-carboxamide]
IC50 ([1]; 72 h): > 10 µM | IC50 ([2]; 72 h): > 10 µM

O=C(Nc1ccccc1)c1c[nH]c2ccc(Cl)cc2c1=O [Derivative 15b, 6-Chloro-4-oxo-N'-phenyl-1,4-dihydroquinoline-3-carboxamide]
IC50 ([1]; 72 h): > 10 µM | IC50 ([2]; 72 h): > 10 µM

Cc1ccc(NC(=O)c2c[nH]c3cc(Cl)ccc3c2=O)cc1 [Derivative 16c, 7-Chloro-4-oxo-N'-(p-tolyl)-1,4-dihydroquinoline-3-carboxamide]
IC50 ([1]; 72 h): > 10 µM | IC50 ([2]; 72 h): > 10 µM

O=C(Nc1ccc(Cl)cc1)c1c[nH]c2ccccc2c1=O [Derivative 12a, 4-oxo-N'-(4-Chlorophenyl)-1,4-dihydroquinoline-3-carboxamide]
IC50 ([1]; 72 h): > 10 µM | IC50 ([2]; 72 h): > 10 µM

COc1ccc(NC(=O)c2c[nH]c3cc(Cl)ccc3c2=O)cc1 [Derivative 14b, 7-Chloro-4-oxo-N'-(4-methoxyphenyl)-1,4-dihydroquinoline-3-carboxamide]
IC50 ([1]; 72 h): > 10 µM | IC50 ([2]; 72 h): > 10 µM

O=C(NCc1ccc(Cl)cc1)c1c[nH]c2ccccc2c1=O [Derivative 10a, 4-Oxo-N'-(4-chlorobenzyl)-1,4-dihydroquinoline-3-carboxamide]
IC50 ([1]; 72 h): > 10 µM | IC50 ([2]; 72 h): > 10 µM

O=C(NC1CCCCC1)c1c[nH]c2cc(Cl)ccc2c1=O [Derivative 11c, 7-Chloro-4-oxo-N'-cyclohexyl-1,4-dihydroquinoline-3-carboxamide]
IC50 ([1]; 72 h): > 10 µM | IC50 ([2]; 72 h): > 10 µM

O=C(Nc1ccccc1)c1c[nH]c2ccccc2c1=O [Derivative 15a, 4-oxo-N'-Phenyl-1,4-dihydroquinoline-3-carboxamide]
IC50 ([1]; 72 h): > 10 µM | IC50 ([2]; 72 h): > 10 µM

O=C(NCc1ccc(Cl)cc1)c1c[nH]c2ccc(Cl)cc2c1=O [Derivative 10b, 6-Chloro-4-oxo-N'-(4-chlorobenzyl)-1,4-dihydroquinoline-3-carboxamide]
IC50 ([1]; 72 h): > 10 µM | IC50 ([2]; 72 h): > 10 µM

O=C(Nc1cc(Cl)ccc1Cl)c1c[nH]c2ccccc2c1=O [Derivative 17a, 4-Oxo-N'-(2,5-dichlorophenyl)-1,4-dihydroquinoline-3-carboxamide]
IC50 ([1]; 72 h): > 10 µM | IC50 ([2]; 72 h): > 10 µM

O=C(NC1CCCCC1)c1c[nH]c2ccccc2c1=O [Derivative 11a, 4-Oxo-N'-cyclohexyl-1,4-dihydroquinoline-3-carboxamide]
IC50 ([1]; 72 h): > 10 µM | IC50 ([2]; 72 h): > 10 µM

COc1ccc(OC)c(NC(=O)c2c[nH]c3ccccc3c2=O)c1 [Derivative 18a, 4-Oxo-N'-(2,5-dimethoxyphenyl)-1,4-dihydroquinoline-3-carboxamide]
IC50 ([1]; 72 h): > 10 µM | IC50 ([2]; 72 h): > 10 µM

From publication PMC6271384, “Synthesis, Cytotoxicity and Mechanistic Evaluation of 4-Oxoquinoline-3-carboxamide Derivatives: Finding New Potential Anticancer Drugs” (Molecules, 2014)
